Test results: ChEMBL document CHEMBL1135245, “Highly potent inhibitors of TNF-alpha production. Part 1: Discovery of chemical leads” (2002)

Assays:
Rattus norvegicus [1] = assay: Inhibition of Tumor necrosis factor alpha production after i.v. dose of 0.01-0.1 mg/10 mL/kg in 6-8 weeks old rats.; type: functional; details: for ED50: Rattus norvegicus, iv, read-out: ID50 (the source's name)
Mus musculus [2] = assay: Tested for inhibition of Tumor necrosis factor alpha production after intravenous dosage of 10 mg/kg to 8 weeks old mice; type: functional
Mus musculus [3] = assay: Tested for inhibition of Tumor necrosis factor alpha production in 8 weeks old mice after intravenous dosage of 0.01-0.1 mg/10 mL/kg; type: functional; details: for ED50: Mus musculus, iv, read-out: ID50 (the source's name)
Mus musculus [4] = assay: Tested for inhibition of Tumor necrosis factor alpha production after intravenous dosage of 30 mg/kg to 8 weeks old mice; type: functional
Rattus norvegicus [5] = assay: Tested for inhibition of Tumor necrosis factor alpha production after intravenous dosage of 10 mg/kg to 6-8 weeks old rats; type: functional
Rattus norvegicus [6] = assay: Tested for inhibition of Tumor necrosis factor alpha production after intravenous dosage of 30 mg/kg to 6-8 weeks old rats pretreated with saline; type: functional
Rattus norvegicus [7] = assay: Tested for inhibition of Tumor necrosis factor alpha production (po) in rats; type: functional; details: read-out: ID50 (the source's name)
Rattus norvegicus [8] = assay: Tested for inhibition of Tumor necrosis factor alpha production after intravenous dosage of 10 mg/kg to 6-8 weeks old rats

## CCCCCCCC(=O)NC(COP(=O)([O-])[O-])c1cccc(O)c1.[Na+].[Na+] (stereo not given)
Rattus norvegicus [1]
  ED50: 1.4 mg/kg

## CCCCCCC(C)(C)C(=O)N[C@@H](COP(=O)(O)O)c1ccccc1
Mus musculus [2]
  inhibition in vivo at 10 mg/kg: 56%

## CCCCCCCC(=O)NC(COP(=O)([O-])[O-])c1cccc(OCC(C)C)c1.[Na+].[Na+] (stereo not given)
Rattus norvegicus [1]
  ED50: 33 mg/kg

## O=C(CCCCc1ccccc1)N[C@@H](COP(=O)(O)O)c1ccccc1
Mus musculus [2]
  inhibition in vivo at 10 mg/kg: 27%

## CCCCCCCCCCC(=O)N[C@@H](COP(=O)(O)O)c1ccccc1
Mus musculus [2]
  inhibition in vivo at 10 mg/kg: 50%

## CCCCCCCC(=O)N[C@@H](COP(=O)([O-])[O-])c1cccc(OC)c1.[Na+].[Na+]
Mus musculus [3]
  ED50: 0.26 mg/kg

## CCCCCCCC(=O)N[C@H](COP(=O)([O-])[O-])c1ccccc1.[Na+].[Na+]
Rattus norvegicus [1]
  ED50: 10 mg/kg

## CCCCCCCC(=O)NC(COP(=O)([O-])[O-])c1cccc(OC(C)C)c1.[Na+].[Na+] (stereo not given)
Rattus norvegicus [1]
  ED50: 0.1 mg/kg

## CCCCCCCC(=O)N[C@H](COP(=O)([O-])[O-])c1cccc(OC)c1.[Na+].[Na+]
Rattus norvegicus [1]
  ED50: 1.6 mg/kg

## CCCC(CCC)C(=O)N[C@@H](COP(=O)(O)O)c1ccccc1
Mus musculus [4]
  inhibition in vivo at 30 mg/kg: 36%

## CCCCCCCC(=O)NC(COP(=O)(O)O)c1ccc(C)cc1 (stereo not given)
Rattus norvegicus [5]
  inhibition in vivo at 10 mg/kg: 44%

## CCCC(=O)N[C@@H](COP(=O)(O)O)c1ccccc1
Mus musculus [2]
  inhibition in vivo at 10 mg/kg: 17%
Rattus norvegicus [6]
  inhibition in vivo at 30 mg/kg: 37%

## CCCCCCCC(=O)NC(COP(=O)(O)O)c1ccccc1Cl (stereo not given)
Rattus norvegicus [5]
  inhibition in vivo at 10 mg/kg: 46%

## CC(=O)N[C@@H](COP(=O)(O)O)c1ccccc1
Mus musculus [2]
  inhibition in vivo at 10 mg/kg: 28%
Rattus norvegicus [6]
  inhibition in vivo at 30 mg/kg: 21%

## CCCCCC(=O)N[C@@H](COP(=O)([O-])[O-])c1ccccc1.[Na+].[Na+]
Mus musculus [3]
  ED50: 30 mg/kg
Rattus norvegicus [1]
  ED50: 50 mg/kg

## CCCCCCCC(=O)NC(COP(=O)([O-])[O-])c1cccc(Cl)c1.[Na+].[Na+] (stereo not given)
Rattus norvegicus [1]
  ED50: 5.2 mg/kg

## CCCCCCC(C)C(=O)N[C@@H](COP(=O)([O-])[O-])c1ccccc1.[Na+].[Na+] (single isomer, unassigned; more polar)
Mus musculus [3]
  ID50: 2.4 mg/kg
Rattus norvegicus [1]
  ID50: 1.7 mg/kg

## CCCCCCCC(=O)N[C@@H](COP(=O)([O-])[O-])c1ccccc1.[Na+].[Na+]
Mus musculus [3]
  ED50: 0.8 mg/kg
Rattus norvegicus [7]
  ED50: 103 mg/kg
Rattus norvegicus [1]
  ED50: 3 mg/kg

## O=C(N[C@@H](COP(=O)([O-])[O-])c1ccccc1)c1ccccc1.[Na+].[Na+]
Mus musculus [2]; read-out: ID50 (the source's name)
  ED50: 32 mg/kg

## CCCCCCCC(=O)NC(COP(=O)([O-])[O-])c1cccc(SC(C)C)c1.[Na+].[Na+] (stereo not given)
Rattus norvegicus [1]
  ED50: 0.21 mg/kg

## CCCCCCOC(=O)N[C@@H](COP(=O)([O-])[O-])c1ccccc1.[Na+].[Na+]
Mus musculus [3]
  ED50: 1.1 mg/kg
Rattus norvegicus [1]
  ED50: 3.2 mg/kg

## CCCCCCNC(=O)N[C@@H](COP(=O)(O)O)c1ccccc1
Mus musculus [2]
  inhibition in vivo at 10 mg/kg: 58%

## CCCCCCC(=O)N[C@@H](COP(=O)([O-])[O-])c1ccccc1.[Na+].[Na+]
Mus musculus [3]
  ED50: 2.8 mg/kg
Rattus norvegicus [1]
  ED50: 4.5 mg/kg

## CCCCCCCC(=O)NC(COP(=O)(O)O)c1cccc(OC2CCCC2)c1 (stereo not given)
Rattus norvegicus [5]
  inhibition in vivo at 10 mg/kg: 7%

## CCCCCCCC(=O)NC(COP(=O)([O-])[O-])c1ccccc1C.[Na+].[Na+] (stereo not given)
Rattus norvegicus [1]
  ED50: 2 mg/kg

## CCCCCCCC(=O)NC(COP(=O)([O-])[O-])c1cccc(C)c1.[Na+].[Na+] (stereo not given)
Rattus norvegicus [1]
  ED50: 53 mg/kg

## CCCCCCCC(=O)NC(COP(=O)(O)O)c1ccc(OC)cc1 (stereo not given)
Rattus norvegicus [5]
  inhibition in vivo at 10 mg/kg: 34%

## CCCCCCCC(=O)NC(COP(=O)([O-])[O-])c1cccc(OC2CCC2)c1.[Na+].[Na+] (stereo not given)
Rattus norvegicus [1]
  ED50: 0.9 mg/kg

## CCCCCCCC(=O)NC(COP(=O)([O-])[O-])c1cccc(OC)c1.[Na+].[Na+] (stereo not given)
Rattus norvegicus [1]
  ED50: 0.5 mg/kg

## CCCCCCCC(=O)NC(COP(=O)([O-])[O-])c1cccc(SC)c1.[Na+].[Na+] (stereo not given)
Rattus norvegicus [1]
  ED50: 0.56 mg/kg

## CCCCCCC(C)C(=O)N[C@@H](COP(=O)([O-])[O-])c1ccccc1.[Na+].[Na+] (stereo in doubt)
Mus musculus [3]
  ED50: 4.2 mg/kg
Rattus norvegicus [1]
  ID50: 8 mg/kg

## CCCCCCCC(=O)NC(COP(=O)(O)O)c1ccccc1OC (stereo not given)
Rattus norvegicus [8]
  inhibition in vivo at 10 mg/kg: 55%

## CCCCCCCC(=O)NC(COP(=O)([O-])[O-])c1cc(OC)cc(OC)c1.[Na+].[Na+] (stereo not given)
Rattus norvegicus [1]
  ED50: 3.8 mg/kg

## CCCCCCCC(=O)NC(COP(=O)([O-])[O-])c1cccc(OCC)c1.[Na+].[Na+] (stereo not given)
Rattus norvegicus [1]
  ED50: 0.2 mg/kg

## CCCCCCCC(=O)NC(COP(=O)([O-])[O-])c1cccc(OCCC)c1.[Na+].[Na+] (stereo not given)
Rattus norvegicus [1]
  ED50: 0.7 mg/kg

## CCCCCCCC(=O)NC(COP(=O)(O)O)c1ccc(Cl)cc1 (stereo not given)
Rattus norvegicus [5]
  inhibition in vivo at 10 mg/kg: -118%
